For one assay, the system named is P. acnes PRP-002. The assay can be described thus: Agar dilution MIC assay. In kind it is cell-based, Propionibacterium acnes. As to conditions: P. acnes PRP-002 (Tet/MLS). On the procedure:
(§1) The propionibacteria were cultured and maintained on Wilkins-Chalgren Anaerobe Medium (agar and broth) at pH 6.0; all cultures were incubated anaerobically at 37° C. for 72 hours.
(§2) This is a standard international method for quantitatively assessing the antimicrobial activity of a compound in a solid medium. The test compound was prepared to 40× the highest concentration required (eg, 10 mg/ml for a final concentration of 250 μg/ml) and a series of doubling dilutions were performed in a suitable solvent. A set amount of these antimicrobial stock solutions was then added to molten agar medium (ca. 55° C.), mixed thoroughly, poured into sterile Petri dishes and allowed to cool/set.
(§3) A Multipoint™ Inoculator (AQS Manufacturing Ltd, UK) was used to inoculate the plates by spotting the inocula onto the surface of the agar, delivering approximately 1 to 2 μl per spot (yielding 10^5 CFU(colony forming units) per spot).
(§4) The plate(s) were then incubated under the conditions described above, following which they were examined visually for signs of bacterial growth. The MIC value was ascertained when there was a marked reduction in, or total loss of, growth on the test plate at the lowest concentration as compared to that of the growth on the control plate.
(§5) The assays were conducted in duplicate and included a positive control (culture medium, diluting solvent and inoculum).
Background: In agar dilution the substance is mixed into plates at graded concentrations.

The subject of the next assay is P. acnes PRP-003. The assay can be described thus: Agar dilution MIC assay. The note with it: P. acnes PRP-003 (Tet). In kind it is cell-based, Propionibacterium acnes. On the procedure:
as §1, §2, §3, §4, §5

In the next assay the test system is P. acnes PRP-004. The assay can be described thus: Agar dilution MIC assay. The note with it: P. acnes PRP-004 (Tet). In kind it is cell-based, Propionibacterium acnes. The method, then: as §1, §2, §3, §4, §5
A further assay has as its system P. acnes PRP-007. The assay can be described thus: Agar dilution MIC assay. In kind it is cell-based, Propionibacterium acnes. The note with it: P. acnes PRP-007 (Clin). The method, then: as §1, §2, §3, §4, §5
Another assay relates to P. acnes PRP-008. The assay can be described thus: Agar dilution MIC assay. The note with it: P. acnes PRP-008 (Clin). In kind it is cell-based, Propionibacterium acnes. On the procedure: as §1, §2, §3, §4, §5
The test system of another assay is P. acnes PRP-010. The assay can be described thus: Agar dilution MIC assay. In kind it is cell-based, Propionibacterium acnes. The note with it: P. acnes PRP-010 (MLSK). The method, then:
as §1, §2, §3, §4, §5

The test system of a further assay is P. acnes PRP-017. The assay can be described thus: Agar dilution MIC assay. In kind it is cell-based, Propionibacterium acnes. As to conditions: P. acnes PRP-017 (MLS). On the procedure:
as §1, §2, §3, §4, §5

In the next assay the test system is P. acnes PRP-023. The assay can be described thus: Agar dilution MIC assay. In kind it is cell-based, Propionibacterium acnes. The note with it: P. acnes PRP-023 (MLSK). On the procedure: as §1, §2, §3, §4, §5
Another assay concerns P. acnes PRP-026. The assay can be described thus: Agar dilution MIC assay. As to conditions: P. acnes PRP-026 (MLS). In kind it is cell-based, Propionibacterium acnes. The method, then:
as §1, §2, §3, §4, §5

Another assay has as its system P. acnes PRP-039. The assay can be described thus: Agar dilution MIC assay. The note with it: P. acnes PRP-039 (Tet/MLS). In kind it is cell-based, Propionibacterium acnes. On the procedure:
as §1, §2, §3, §4, §5

The next assay concerns P. acnes PRP-046. The assay can be described thus: Agar dilution MIC assay. In kind it is cell-based, Propionibacterium acnes. As to conditions: P. acnes PRP-046 (resistance None). On the procedure: as §1, §2, §3, §4, §5
Another assay has as its system P. acnes PRP-053. The assay can be described thus: Agar dilution MIC assay. In kind it is cell-based, Propionibacterium acnes. The note with it: P. acnes PRP-053 (Tet/MLS). The method, then: as §1, §2, §3, §4, §5
The next assay relates to P. acnes PRP-059. The assay can be described thus: Agar dilution MIC assay. In kind it is cell-based, Propionibacterium acnes. The note with it: P. acnes PRP-059 (MLS). On the procedure: as §1, §2, §3, §4, §5
A further assay relates to P. acnes PRP-068. The assay can be described thus: Agar dilution MIC assay. In kind it is cell-based, Propionibacterium acnes. The note with it: P. acnes PRP-068 (Ery). On the procedure: as §1, §2, §3, §4, §5
For the next assay, the system named is P. acnes PRP-101. The assay can be described thus: Agar dilution MIC assay. In kind it is cell-based, Propionibacterium acnes. As to conditions: P. acnes PRP-101 (Tet/MLS). The method, then:
as §1, §2, §3, §4, §5

Another assay concerns P. acnes PRP-102. The assay can be described thus: Agar dilution MIC assay. The note with it: P. acnes PRP-102 (Tet/MLS). In kind it is cell-based, Propionibacterium acnes. On the procedure: as §1, §2, §3, §4, §5
The test system of assay [1] is Por. gingivalis NCTC 11834. The assay can be described thus: MBC assay. In kind it is cell-based, Porphyromonas gingivalis. On the procedure:
The P. gingivalis strains were cultured and maintained on Wilkins-Chalgren Anaerobe Medium (agar and broth) at pH 7.0; all cultures were incubated anaerobically at 37° C. for 5-7 days. This assay, normally carried out after an MIC assay, determines the rnininiurn concentration of a compound that is lethal to the micro-organism being tested. […] These samples were then individually sub-cultured on antibiotic-free agar medium, under the incubation conditions described above. Following incubation they were examined visually for microbial growth.

The test system of another assay is Strep. mutans ATCC 25175. The assay can be described thus: MIC assay, liquid medium. In kind it is cell-based, Streptococcus mutans. On the procedure: The S. mutans was cultured and maintained on Wilkins-Chalgren Anaerobe Medium (agar and broth) at pH 7.0 supplemented with 1 g/L glucose; all cultures were incubated at 37° C. for 48 h in an atmosphere containing 5% CO2.
This is a standard international method for quantitatively assessing the antimicrobial activity of a compound in a liquid medium. The method used a sterile 96-well microtitre plate, capable of holding about 200 μl of liquid per well. The wells contained liquid culture medium and ranges of decreasing concentrations of the relevant test compound in doubling dilutions (eg, 1000, 500, 250, 125 . . . μg/ml, etc. down to 0.49 μg/ml). The culture media were as described above.
The wells were inoculated with a liquid suspension of freshly grown micro-organism and incubated under the conditions described above. After incubation, the microtitre plate was examined visually (with the aid of a light box) for cloudiness in each well, which would indicate microbial growth. The MIC value was recorded as the lowest concentration of test compound required to inhibit microbial growth, ie, the lowest concentration for which the liquid in the well remained clear.
The assays included both negative (culture medium with no micro-organisms) and positive (culture medium plus diluting solvent plus micro-organism) controls.

Usually MIC stands for the lowest concentration found to suppress growth. A word on the MBC: it is the lowest tested concentration that kills the bacteria rather than only halting them. Lower therefore signals more potent killing. Take dioctyl sodium sulphosuccinate [DOSS]: the MIC against P. acnes PRP-002, in the assay with P. acnes PRP-003, against P. acnes PRP-004, against P. acnes PRP-007, against P. acnes PRP-008 and against P. acnes PRP-010 was 15.6 µg/mL in each case. The MIC against P. acnes PRP-017, in the assay with P. acnes PRP-023, against P. acnes PRP-026, against P. acnes PRP-039, in the assay with P. acnes PRP-046 and with P. acnes PRP-053 was 15.6 µg/mL in each case. Moreover, the MIC in the assay on P. acnes PRP-059 turned out to be 15.6 µg/mL; in the assay on P. acnes PRP-068, 15.6 µg/mL; against P. acnes PRP-101, 15.6 µg/mL; against P. acnes PRP-102, 31.25 µg/mL; with Strep. mutans ATCC 25175 it was 15.6 µg/mL. In addition, the MBC in [1] is below 0.49 µg/mL.

(Values after patent US20100273876A1, “ANTIBACTERIAL FORMULATION COMPRISING A DIALKYL SULPHOSUCCINATE AND A CARBANILIDE ANTIBACTERIAL AGENT” (priority 2007, published 2010).)
